Source: US11214572B2, “7-site substituted pyrrole triazine compounds or pharmaceutically acceptable salts thereof, and preparation method thereof and uses thereof” (SHANGHAI INSTITUTE OF MATERIA MEDICA, CHINESE ACADEMY OF …, priority 2017, dated 2022)
“And” between values parts separate entries of the source, which are not always exact repeats. Equal entries are not always repeated. “Also recorded” adds a separate entry of the source. Where two headings read alike, the source gives them in different places. Each block holds one compound with its values, some of them ahead of it.

Columns and labels:
PI3Kδ = PI3Kδ (Homo sapiens, UniProt O00329); experiment: PI3K kinase activity, δ isoform; details: for inhibition at 0.02 µM: read-out: IH (%) @ 20 nM, δ
Description: (§6) Concentration setting for preliminary screening: the compounds to be tested were dissolved in DMSO (dimethyl sulfoxide) to 100 μM or 10 μM as storage solutions; for each one, 2 μL was taken to be added to 48 μL of 1× Reaction Buffer to obtain a 4 μM or 400 nM compound solution containing 4% DMSO. After well mixing, the mixture was diluted with 4% DMSO in 1× Reaction Buffer to obtain a 4 μM or 400 nM compound solution. 5 μL of each diluted solution was taken to be added to a 384-well plate, so that the final concentration of the compound in the final 20 μL of the kinase reaction system was 1 μM and 100 nM or 100 nM and 20 nM, respectively, and containing 1% DMSO.
(§7) The compounds to be tested were dissolved in DMSO to 1 mM or 10 mM as working solutions, 1 μL of each working solution was taken to be added to 24 μl of 1× Kinase Buffer A to obtain a 40 μM or 400 μM compound solution containing 4% DMSO. The compound solution was diluted by 4× gradient in sequence, 10 dilution concentrations.
(§8) Calculation of the Inhibition Rate • The inhibitory rate was calculated by the following formula: Inhibitory rate=(ERsample−ER0%)/(ER100%−ER0%)×100%

PI3Kα = PI3Kα (Homo sapiens, UniProt P42336); experiment: PI3K kinase activity, α isoform; details: for inhibition at 0.02 µM: read-out: IH (%) @ 20 nM, α
Description: as §6, §7, §8

PI3Kγ = PI3Kγ (Homo sapiens, UniProt P48736); experiment: PI3K kinase activity, γ isoform; type: biochemical; details: for inhibition at 0.1 µM: compound 100 nM, read-out: IH (%) @ 100 nM, γ;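 on all read-outs here: kinase reaction run in 384-well plates, with inhibition normalised between the 0% and 100% reference reactions. IC50 derived from a ten-point, fourfold serial dilution series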
Description: as §6, §7, §8

PI3Kβ = PI3Kβ (Homo sapiens, UniProt P42338); experiment: PI3K kinase activity, β isoform; details: for inhibition at 0.1 µM: read-out: IH (%) @ 100 nM, β;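 on all read-outs here: kinase reaction containing 1% DMSO, read as an emission ratio, with inhibition scaled between the 0% and 100% control ratios. IC50 values come from a ten-point fourfold dilution series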
Description: as §6, §7, §8

[1] = Preliminary pharmacokinetic test, intravenous injection; type: in vivo, SD rats; details: 5 mg/kg, rats, intravenous injection 5 mg/kg, tested as monomesylate; for Vd: read-out: Vss
Description: (§1) 1. 14 healthy SD rats, male, weigh 200-220 g, were taken to be randomly divided into 4 groups, 3-4 in each group, and were administered the tested compound P-17 and compound CYH33 (compared with compound P-17, missing a methyl group on 7-position) via intragastric administration (10 mg/kg) and intravenous injection (5 mg/kg) respectively, the specific arrangements are shown in the following table 3:
(§2) The rats were fasted for 12 h before experiment, water was taken freely. The rats were fed 2 h after dosing.
Dosing via intravenous: 5 min, 0.25 h, 0.5 h, 1.0 h, 2.0 h, 4.0 h, 6.0 h, 8.0 h, and 24 h after dosing.
(§3) At the above setting time points, 0.3 ml of venous blood was taken from the retroorbital venous plexus of the rat, and placed in a heparinized test tube, centrifuged at 11,000 rpm for 5 min, then the plasma was separated, and frozen in a refrigerator at −20° C.
(§4) LC/MS/MS method was used to determine the concentration of the compounds in the plasma of rats.
(§5) The non-compartment model of Phoenix 1.3 software (Pharsight Corporation, USA) was used to calculate the pharmacokinetic parameters after dosing.

[2] = Preliminary pharmacokinetic test, intragastric administration; type: in vivo, SD rats; details: rats; for half-life: read-out: T½ (converted)
Description: as §1, §2
Dosing via intragastric administration: 0.25 h, 0.5 h, 1.0 h, 2.0 h, 3.0 h, 4.0 h, 6.0 h, 8.0 h, and 24 h after dosing.
as §3, §4, §5

[3] = male, SD, rat, plasma, iv, Mean
[4] = male, SD, rat, plasma, iv, individual animal

PI3Kγ, sequence (P48736 whole entry, canonical isoform): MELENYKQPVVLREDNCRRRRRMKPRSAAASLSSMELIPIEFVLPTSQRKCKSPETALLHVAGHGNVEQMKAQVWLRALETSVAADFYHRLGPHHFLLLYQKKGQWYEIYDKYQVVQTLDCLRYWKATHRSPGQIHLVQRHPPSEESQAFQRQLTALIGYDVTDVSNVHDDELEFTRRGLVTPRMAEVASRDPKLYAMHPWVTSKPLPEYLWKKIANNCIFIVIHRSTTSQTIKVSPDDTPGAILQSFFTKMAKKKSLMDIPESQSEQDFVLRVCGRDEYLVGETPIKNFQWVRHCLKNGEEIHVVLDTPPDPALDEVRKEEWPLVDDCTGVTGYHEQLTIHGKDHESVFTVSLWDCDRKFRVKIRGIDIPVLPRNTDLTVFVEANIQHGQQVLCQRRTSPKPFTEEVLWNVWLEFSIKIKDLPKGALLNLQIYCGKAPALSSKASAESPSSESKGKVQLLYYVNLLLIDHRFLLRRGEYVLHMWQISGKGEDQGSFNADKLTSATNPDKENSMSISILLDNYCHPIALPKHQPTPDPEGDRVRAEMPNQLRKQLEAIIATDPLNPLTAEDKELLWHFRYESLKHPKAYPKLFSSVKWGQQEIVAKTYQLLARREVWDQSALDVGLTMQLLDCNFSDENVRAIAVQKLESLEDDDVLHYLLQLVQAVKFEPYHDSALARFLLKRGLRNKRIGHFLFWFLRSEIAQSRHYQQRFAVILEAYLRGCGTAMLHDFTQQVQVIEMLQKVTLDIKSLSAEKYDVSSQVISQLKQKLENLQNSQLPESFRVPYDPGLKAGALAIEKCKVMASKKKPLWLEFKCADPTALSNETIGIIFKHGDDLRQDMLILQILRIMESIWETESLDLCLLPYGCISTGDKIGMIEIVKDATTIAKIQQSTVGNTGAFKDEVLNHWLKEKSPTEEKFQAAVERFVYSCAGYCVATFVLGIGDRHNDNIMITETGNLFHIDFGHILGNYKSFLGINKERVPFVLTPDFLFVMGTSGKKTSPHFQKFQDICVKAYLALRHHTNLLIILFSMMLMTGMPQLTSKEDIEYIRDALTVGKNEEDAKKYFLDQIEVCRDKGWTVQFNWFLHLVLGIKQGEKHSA
PI3Kβ, sequence (P42338 whole entry, canonical isoform): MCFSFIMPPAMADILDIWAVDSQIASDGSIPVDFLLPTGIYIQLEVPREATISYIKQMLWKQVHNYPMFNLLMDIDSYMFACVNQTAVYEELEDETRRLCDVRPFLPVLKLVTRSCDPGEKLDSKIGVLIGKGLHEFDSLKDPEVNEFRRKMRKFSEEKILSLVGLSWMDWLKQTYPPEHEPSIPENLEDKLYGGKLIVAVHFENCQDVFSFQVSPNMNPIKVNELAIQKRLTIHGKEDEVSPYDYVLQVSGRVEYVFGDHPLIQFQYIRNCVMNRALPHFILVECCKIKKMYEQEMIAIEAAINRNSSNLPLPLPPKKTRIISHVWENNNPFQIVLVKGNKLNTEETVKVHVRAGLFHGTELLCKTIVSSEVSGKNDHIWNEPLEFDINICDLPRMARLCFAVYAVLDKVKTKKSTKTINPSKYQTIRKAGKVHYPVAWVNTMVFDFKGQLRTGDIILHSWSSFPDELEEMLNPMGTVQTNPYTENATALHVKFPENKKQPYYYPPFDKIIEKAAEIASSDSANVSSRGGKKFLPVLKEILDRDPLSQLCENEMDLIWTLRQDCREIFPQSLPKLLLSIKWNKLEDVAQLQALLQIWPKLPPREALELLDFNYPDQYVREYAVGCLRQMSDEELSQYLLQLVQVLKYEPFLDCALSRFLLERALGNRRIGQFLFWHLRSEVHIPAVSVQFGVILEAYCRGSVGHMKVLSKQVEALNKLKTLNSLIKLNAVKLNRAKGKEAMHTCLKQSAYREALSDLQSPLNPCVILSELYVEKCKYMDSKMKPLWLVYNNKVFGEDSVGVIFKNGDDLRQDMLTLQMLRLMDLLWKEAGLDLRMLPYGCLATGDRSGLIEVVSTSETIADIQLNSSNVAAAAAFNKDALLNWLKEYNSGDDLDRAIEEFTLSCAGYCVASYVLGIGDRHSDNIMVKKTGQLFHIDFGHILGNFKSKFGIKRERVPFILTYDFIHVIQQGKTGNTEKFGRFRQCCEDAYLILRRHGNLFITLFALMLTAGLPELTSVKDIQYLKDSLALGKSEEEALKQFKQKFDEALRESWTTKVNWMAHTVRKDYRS
PI3Kβ, sequence (P27986 whole entry partner, canonical isoform): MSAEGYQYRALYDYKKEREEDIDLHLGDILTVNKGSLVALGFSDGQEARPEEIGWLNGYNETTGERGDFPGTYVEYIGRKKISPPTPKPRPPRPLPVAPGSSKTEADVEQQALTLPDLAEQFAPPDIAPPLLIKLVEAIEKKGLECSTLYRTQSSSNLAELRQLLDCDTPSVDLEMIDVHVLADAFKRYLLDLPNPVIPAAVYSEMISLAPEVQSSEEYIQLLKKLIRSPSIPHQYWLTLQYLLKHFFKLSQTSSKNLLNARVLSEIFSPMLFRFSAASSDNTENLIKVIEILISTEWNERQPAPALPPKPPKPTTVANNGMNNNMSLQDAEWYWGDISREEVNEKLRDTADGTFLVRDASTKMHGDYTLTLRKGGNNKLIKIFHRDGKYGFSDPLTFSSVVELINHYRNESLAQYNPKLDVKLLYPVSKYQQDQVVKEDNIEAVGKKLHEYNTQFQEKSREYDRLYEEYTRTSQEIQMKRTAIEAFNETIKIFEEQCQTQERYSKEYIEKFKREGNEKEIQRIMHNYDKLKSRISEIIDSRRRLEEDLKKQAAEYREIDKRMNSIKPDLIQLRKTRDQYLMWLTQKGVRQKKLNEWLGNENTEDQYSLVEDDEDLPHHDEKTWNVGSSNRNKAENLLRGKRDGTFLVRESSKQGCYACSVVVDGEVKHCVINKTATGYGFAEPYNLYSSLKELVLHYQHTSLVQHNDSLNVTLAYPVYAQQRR
PI3Kα, sequence (P42336 whole entry, canonical isoform): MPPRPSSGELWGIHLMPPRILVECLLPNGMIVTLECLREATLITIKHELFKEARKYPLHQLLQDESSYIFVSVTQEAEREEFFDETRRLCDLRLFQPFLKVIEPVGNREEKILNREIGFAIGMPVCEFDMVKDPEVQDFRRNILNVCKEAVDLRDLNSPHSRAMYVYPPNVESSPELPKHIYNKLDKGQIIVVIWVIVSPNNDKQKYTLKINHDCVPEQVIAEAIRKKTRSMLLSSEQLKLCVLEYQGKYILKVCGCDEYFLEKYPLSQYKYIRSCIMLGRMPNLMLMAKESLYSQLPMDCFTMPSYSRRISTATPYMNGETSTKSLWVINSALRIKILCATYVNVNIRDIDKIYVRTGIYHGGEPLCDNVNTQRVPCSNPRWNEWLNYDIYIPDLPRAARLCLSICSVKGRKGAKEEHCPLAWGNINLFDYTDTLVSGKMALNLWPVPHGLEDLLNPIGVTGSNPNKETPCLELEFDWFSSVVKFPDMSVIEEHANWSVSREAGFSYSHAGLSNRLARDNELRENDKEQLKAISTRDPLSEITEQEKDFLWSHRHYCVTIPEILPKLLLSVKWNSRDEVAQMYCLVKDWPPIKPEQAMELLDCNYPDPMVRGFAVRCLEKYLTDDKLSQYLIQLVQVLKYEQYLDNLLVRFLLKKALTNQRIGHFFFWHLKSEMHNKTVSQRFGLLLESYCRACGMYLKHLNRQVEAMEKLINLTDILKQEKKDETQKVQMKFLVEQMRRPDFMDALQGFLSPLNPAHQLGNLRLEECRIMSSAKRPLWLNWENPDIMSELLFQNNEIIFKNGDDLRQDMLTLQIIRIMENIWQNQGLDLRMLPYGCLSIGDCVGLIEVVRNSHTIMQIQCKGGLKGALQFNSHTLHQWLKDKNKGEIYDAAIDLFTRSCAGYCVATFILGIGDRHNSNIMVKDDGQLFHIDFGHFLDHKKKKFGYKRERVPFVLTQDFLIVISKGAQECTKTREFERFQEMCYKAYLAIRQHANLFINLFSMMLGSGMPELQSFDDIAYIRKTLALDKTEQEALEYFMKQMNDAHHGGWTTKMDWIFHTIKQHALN
PI3Kα, sequence (P27986 whole entry partner, canonical isoform): as the sequence (P27986 whole entry partner, canonical isoform) above
PI3Kδ, sequence (O00329 whole entry, canonical isoform): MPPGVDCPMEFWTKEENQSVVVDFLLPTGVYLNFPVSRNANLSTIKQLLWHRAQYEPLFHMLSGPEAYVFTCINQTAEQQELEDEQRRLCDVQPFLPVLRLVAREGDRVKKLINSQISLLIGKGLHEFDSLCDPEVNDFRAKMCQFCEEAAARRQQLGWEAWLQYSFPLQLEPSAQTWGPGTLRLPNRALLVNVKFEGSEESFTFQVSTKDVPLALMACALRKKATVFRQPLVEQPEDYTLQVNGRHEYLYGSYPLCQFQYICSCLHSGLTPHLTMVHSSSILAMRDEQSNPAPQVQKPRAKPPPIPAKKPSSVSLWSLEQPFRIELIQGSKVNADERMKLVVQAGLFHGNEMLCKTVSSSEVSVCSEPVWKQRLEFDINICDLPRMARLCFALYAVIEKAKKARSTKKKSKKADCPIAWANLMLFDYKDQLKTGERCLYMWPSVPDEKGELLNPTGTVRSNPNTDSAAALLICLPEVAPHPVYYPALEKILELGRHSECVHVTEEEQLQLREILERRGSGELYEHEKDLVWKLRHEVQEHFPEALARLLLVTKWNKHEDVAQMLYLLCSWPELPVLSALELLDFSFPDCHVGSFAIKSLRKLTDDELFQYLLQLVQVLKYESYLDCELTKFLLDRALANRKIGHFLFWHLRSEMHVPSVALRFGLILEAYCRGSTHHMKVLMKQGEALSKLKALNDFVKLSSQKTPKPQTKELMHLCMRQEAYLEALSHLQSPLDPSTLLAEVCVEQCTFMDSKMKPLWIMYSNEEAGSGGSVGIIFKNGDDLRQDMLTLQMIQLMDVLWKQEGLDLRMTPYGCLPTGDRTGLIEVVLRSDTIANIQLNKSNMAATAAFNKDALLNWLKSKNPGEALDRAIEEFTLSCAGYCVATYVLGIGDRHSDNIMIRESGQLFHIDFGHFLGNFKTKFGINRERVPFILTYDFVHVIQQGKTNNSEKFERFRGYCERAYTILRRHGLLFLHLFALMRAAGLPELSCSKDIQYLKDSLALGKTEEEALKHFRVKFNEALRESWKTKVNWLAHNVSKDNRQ
PI3Kδ, sequence (P27986 whole entry partner, canonical isoform): as the sequence (P27986 whole entry partner, canonical isoform) above

Compound: Cc1c(CN2CCN(S(C)(=O)=O)CC2)cc2c(N3CCOCC3)nc(-c3cnc(NC(=O)NC(C)C)cc3C(F)(F)F)nn12 [Compound P-22]
IC50 (PI3Kδ): 29.5 nM | inhibition at 0.02 µM (PI3Kδ): 46.5% | IC50 (PI3Kα): 122 nM | inhibition at 0.02 µM (PI3Kα): 50% | IC50 (PI3Kγ): 311 nM | inhibition at 0.1 µM (PI3Kγ): 30.3% | IC50 (PI3Kβ): 1540 nM | inhibition at 0.1 µM (PI3Kβ): 15.1%

Compound: Cc1c(CNCCCN(C)C)cc2c(N3CCOCC3)nc(-c3cnc(N)cc3C(F)(F)F)nn12 [Compound P-2]
IC50 (PI3Kδ): 36.6 nM | inhibition at 0.02 µM (PI3Kδ): 46% | IC50 (PI3Kα): 321 nM | inhibition at 0.02 µM (PI3Kα): 18.7% | IC50 (PI3Kγ): 37600 nM | inhibition at 0.1 µM (PI3Kγ): 0.62% | IC50 (PI3Kβ): 2140 nM | inhibition at 0.1 µM (PI3Kβ): 4.74%

Compound: CCNC(=O)Nc1cc(C(F)(F)F)c(-c2nc(N3CCOCC3)c3cc(CN4CCN(S(C)(=O)=O)CC4)c(C)n3n2)cn1 [Compound P-21]
IC50 (PI3Kδ): 6.22 nM | inhibition at 0.02 µM (PI3Kδ): 107% | IC50 (PI3Kα): 21.8 nM | inhibition at 0.02 µM (PI3Kα): 89.3% | IC50 (PI3Kγ): 37.5 nM | inhibition at 0.1 µM (PI3Kγ): 74.1% | IC50 (PI3Kβ): 139 nM | inhibition at 0.1 µM (PI3Kβ): 46.3%

Compound: Cc1c(CN2CCN(S(C)(=O)=O)CC2)cc2c(N3CCOCC3)nc(-c3cnc(NC(=O)NC4CC4)cc3C(F)(F)F)nn12 [Compound P-20]
IC50 (PI3Kδ): 3.73 nM | inhibition at 0.02 µM (PI3Kδ): 83.1% | IC50 (PI3Kα): 10.8 nM | inhibition at 0.02 µM (PI3Kα): 102% | IC50 (PI3Kγ): 36.6 nM | inhibition at 0.1 µM (PI3Kγ): 68.3% | IC50 (PI3Kβ): 124 nM | inhibition at 0.1 µM (PI3Kβ): 57.4%

Compound: COCCCNCc1cc2c(N3CCOCC3)nc(-c3cnc(N)cc3C(F)(F)F)nn2c1C [Compound P-3]
inhibition at 0.02 µM (PI3Kδ): 39.8% | inhibition at 0.02 µM (PI3Kα): 6.72% | inhibition at 0.1 µM (PI3Kγ): 2.94% | inhibition at 0.1 µM (PI3Kβ): -0.12%

Second part, led by results:

IC50 (PI3Kδ): 19.6 nM | inhibition at 0.02 µM (PI3Kδ): 53.2% | IC50 (PI3Kα): 424 nM | inhibition at 0.02 µM (PI3Kα): -0.6% | IC50 (PI3Kγ): 4830 nM | inhibition at 0.1 µM (PI3Kγ): -2.33% | IC50 (PI3Kβ): 1360 nM | inhibition at 0.1 µM (PI3Kβ): 14.9%
Compound: Cc1c(CN2CCC(C(C)(C)O)CC2)cc2c(N3CCOCC3)nc(-c3cnc(N)cc3C(F)(F)F)nn12 [Compound P-5]
selectivity for PI3Kδ (in words) (PI3Kδ; versus other PI3K isoforms, from Tables 1 and 2): selective inhibitory effect on PI3Kδ; also recorded: good selectivities for PI3Kδ

IC50 (PI3Kδ): 75.2 nM | inhibition at 0.02 µM (PI3Kδ): 64.1% | IC50 (PI3Kα): 76.2 nM | inhibition at 0.02 µM (PI3Kα): 60.7% | IC50 (PI3Kγ): 290 nM | inhibition at 0.1 µM (PI3Kγ): 47% | AUC(0-inf) [1, 3]: 3240 ng·h/mL | AUC(0-t) [1, 3]: 2990 ng·h/mL | clearance [1, 3]: 26.8 mL/min/kg | half-life [1, 3]: 2.1 h | MRT ([1]; male, SD, rat, plasma, iv, Mean, read-out: MRT): 2.71 h | Vd [1, 3]: 4.17 L/kg | AUC(0-inf) [1, 4]: 4190 ng·h/mL | AUC(0-t) [1, 4]: 3700 ng·h/mL | clearance [1, 4]: 19.8 mL/min/kg | half-life [1, 4]: 2.61 h | MRT ([1]; male, SD, rat, plasma, iv, individual animal, read-out: MRT): 3.53 h | Vd [1, 4]: 4.21 L/kg | AUC 0 − t ([1]; individual animal): 2564 ng·h/mL and 2711 ng·h/mL | AUC 0 − ∞ ([1]; individual animal): 2672 ng·h/mL and 2845 ng·h/mL | Cl ([1]; individual animal): 31.2 mL/min/kg and 29.3 mL/min/kg | MRT ([1]; individual animal): 2.13 h and 2.46 h | T1/2 ([1]; individual animal): 1.88 h and 1.82 h | Vss ([1]; individual animal): 3.98 L/kg and 4.33 L/kg | IC50 (PI3Kβ): 912 nM | inhibition at 0.1 µM (PI3Kβ): 16% | half-life ([2]; male, SD, rat, plasma, oral, 10 mg/kg, 10 mg/kg, Mean, monomesylate): 2.77 h | half-life ([2]; male, SD, rat, plasma, oral, 10 mg/kg, 10 mg/kg, individual animal, monomesylate): 3.08 h | AUC(0-inf) ([2]; male, SD, rat, plasma, oral, 10 mg/kg, Mean, monomesylate): 6120 ng·h/mL | bioavailability ([2]; male, SD, rat, plasma, oral, 10 mg/kg versus 5 mg/kg intravenous, monomesylate, read-out: F (absolute bioavailability)): 95.8% | steady-state distribution volume Vss, average residence time MRT, half-life T½ and absolute bioavailability F compared with CYH33 (in words) ([2]; monomesylates): improved
Compound: COC(=O)Nc1cc(C(F)(F)F)c(-c2nc(N3CCOCC3)c3cc(CN4CCN(S(C)(=O)=O)CC4)c(C)n3n2)cn1 [Compound P-17]

inhibition at 0.02 µM (PI3Kδ): 41.2% | inhibition at 0.02 µM (PI3Kα): 30.5% | inhibition at 0.1 µM (PI3Kγ): 2.16% | inhibition at 0.1 µM (PI3Kβ): 2.34%
Compound: Cc1c(CN2CCN(C(=O)C(C)(C)O)CC2)cc2c(N3CCOCC3)nc(-c3cnc(N)cc3C(F)(F)F)nn12 [Compound P-13]
